Assay results taken from patent US9359452B2, “Isolation and characterisation of heparan sulphates and their use in pharmaceutical compositions, methods of treatment and stem cell culture media suitable for conditions associated with bone repair” (Agency for Science, Technology and Research, priority 2009, dated 2016).
Entries after “also recorded” stand apart in the source; their conditions may differ.

Columns and labels:
[1] = system: human mesenchymal stem cells (hMSC); assay: hMSC proliferation, viable cell count in osteogenic medium; type: cell-based; settings: data not shown
Method: (§1) FIG. 5. Effect of male and female liver HS on the growth of hMSC in maintenance and osteogenic medium. Cells were cultured for 7 days in normal maintenance medium in the presence of different concentrations (12.5 μg/ml or 1.25 μg/ml or 625 ng/ml or 312 ng/ml or 156 ng/ml) of male liver HS (A), and female liver HS (B). Cells were cultured for 7 days in osteogenic medium in the presence of different concentrations (12.5 μg/ml or 625 ng/ml or 312 ng/ml) of male liver HS (C), and female liver HS (D). Viable cell counts were determined at day 1, 3, 5 and 7. (E) The importance of FGFR signaling for HS activity was investigated by supplementing serum starved sub confluence cultures with male or female. HS (2.5 μg/ml) or FGF2 (2.5 ng/ml) in the presence or absence of an FGFR1 inhibitor (SU5402 at 20 μM) for 60 min. Total protein was extracted for Western blotting and first probed for activated ERK1/2 expression (pERK1/2). Membranes were then striped and reprobed with anti ERK1/2 antibody. (F) The amount of pERK1/2 protein was determined by densitometry. […]
(§2) Human mesenchymal stem cells (hMSCs) (Cambrex, USA) were plated in maintenance medium consisting of DMEM (1000 mg/L glucose), 10% fetal calf serum (FCS), 2 mM L-glutamine and 100 U/ml penicillin-streptomycin sulfate at 37° C. in a humidified atmosphere with 5% CO2. […] Proliferation of cells was assessed by Guava viacount on 1, 3, 5 and 7 day to determine the total viable cells. Cells were washed in PBS, pelleted with 0.125% trypsin, the trypsin neutralized, the pellet resuspended in 400 μl of PBS with the addition of 4 μl of Flex reagent, incubated for 10 min and cell number and viability determined utilizing the GUAVA Viacount software.
To assess the possibility of structural differences identified between the male and female liver HS to modulate hMSC proliferation, hMSCs were treated with varying concentration of HS and viable cell number was counted over a 7-day culture period in normal maintenance or differentiation (osteogenic) medium.

[2] = system: human mesenchymal stem cells (hMSC); assay: hMSC proliferation, viable cell count (GUAVA Viacount) in maintenance medium; type: cell-based; settings: normal growth medium; data not shown
Method: as §2, with “CO2. To assess their proliferation, assays were performed to determine cell number utilizing the GUAVA PCA-96 System (GUAVA Technologies) as per the manufacturer's instructions. Briefly, cells were seeded at 3,000 cells/cm^2 in 48-well plates and allowed to adhere overnight.” for “CO2.”
Human mesenchymal stem cells (hMSCs) were plated in maintenance medium consisting of DMEM (1000 mg/L glucose), 10% fetal calf serum (FCS), 2 mM L-glutamine and 100 U/ml penicillin-streptomycin sulfate at 37° C. in a humidified atmosphere with 5% CO2. To assess their proliferation, assays were performed to determine cell number utilizing the GUAVA PCA-96 System (Millipore, USA) as per the manufacturer's instructions.
Briefly, cells were seeded at 3,000 cells/cm^2 in 48-well plates and allowed to adhere overnight. […] Proliferation of cells was assessed on days 1, 3, 5 and 7 to determine total viable cells. Cells were washed in PBS, pelleted with 0.125% trypsin, the trypsin neutralized, the pellet resuspended in 400 μl of PBS with the addition of 4 μl of Flex reagent, incubated for 10 min and cell number and viability determined utilizing the GUAVA Viacount software.

hMSCs = assay: hMSC proliferation with or without FGFR1 inhibitor SU5402, 5 days; type: cell-based, human
ERK1/2 = ERK1/2 phosphorylation in serum-starved hMSC (Western blot); type: cell-based, human; settings: SU5402 at 20 μM, 60 min, with male or female HS 2.5 μg/ml
Method: as §1
MSCs were seeded in designated media at 5,000/cm^2 in six-well plates and cultured until subconfluent. […] Protein content was determined using a Protein Assay Kit (Bio-Rad) following the manufacturer's instructions. […]

[3] = system: Bovine aortic smooth muscle cells (BASMC); settings: literature (Yang et al); cited from earlier work

| Molecule | effect on hMSC proliferation [1] | hMSC proliferation compared to 10% serum [2] | effect on BASMC mineralization [3] | further results |
| --- | --- | --- | --- | --- |
| 2-de-O-sulfated heparin | no effect; also recorded: neither de-N-sulfated, 2-de-O-sulfated nor 6-de-O-sulfated heparin had any effect | less effect on proliferation |  |  |
| 6-de-O-sulfated heparin | no effect; also recorded: neither de-N-sulfated, 2-de-O-sulfated nor 6-de-O-sulfated heparin had any effect | less effect on proliferation |  |  |
| Cc1c[nH]c(/C=C2\C(=O)Nc3ccccc32)c1CCC(=O)O [SU5402] |  |  |  | effect on basal growth of hMSCs (hMSCs; SU5402 at 20 μM): inhibitory effect; effect on HS and FGF2 induced proliferation (hMSCs; SU5402 at 20 μM, male HS 2.5 μg/ml or FGF2 2.5 ng/ml): preventing HS and FGF2 induced proliferation; effect on liver HS-stimulated ERK1/2 phosphorylation (ERK1/2): blocked |
| FGF2 |  |  |  | effect on hMSC proliferation (hMSCs; FGF2 2.5 ng/ml): induced proliferation |
| N-desulfated heparin |  |  | no inhibition; also recorded: no inhibitory activity |  |
| de-N-sulfated heparin | no effect; also recorded: neither de-N-sulfated, 2-de-O-sulfated nor 6-de-O-sulfated heparin had any effect | does not increase hMSC proliferation; also recorded: failed to improve hMSC proliferation |  |  |
| dermatan sulfate |  |  | no inhibition; also recorded: no inhibitory activity |  |
| heparin [highly sulfated heparin] |  |  | inhibited |  |
